# US7067500B2, “Betaines as adjuvants to susceptibility testing and antimicrobial therapy” (priority 1997, dated 2006)
# Counter-ions that a name gives are not always drawn.
# System: M. fortuitum complex isolates ATCC 6841 and 495-JHH
# Test: CB-18 titration, BACTEC 12B growth curves
# Format: cell-based
# Settings: M. fortuitum 495-JHH
compound,measurement,setting,value
"CCCCCCCCCCCCCCCCCC[N+](C)(C)CCCC(=O)[O-] [CB-18, N-(3-carboxypropyl)-N,N-dimethyl-1-octadecanaminium, inner salt]",CB-18 concentration at which the isolate was viable / able to grow to some degree,CB-18 alone,109 µg/mL
same,CB-18 concentration at which growth was affected to some degree,combined with cefoxitin,13 µg/mL
same,CB-18 concentration at which growth was completely inhibited,combined with cefoxitin,27 µg/mL
